Measurements from patent US9315522B2, “Antibacterial compounds” (JANSSEN SCIENCES IRELAND UC, priority 2012, dated 2016).
Values after ≈ are worked out from the molar mass of the structure shown.

Key:
[1] = molecular target: T1, S. aureus ATCC 29213 FabI (Staphylococcus aureus, UniProt Q6GI75); assay: Staphylococcus aureus FabI enzyme inhibition assay; format: biochemical; conditions: read-out: FabI (300.235) IC50 (converted)
T1 sequence (Q6GI75 1-256): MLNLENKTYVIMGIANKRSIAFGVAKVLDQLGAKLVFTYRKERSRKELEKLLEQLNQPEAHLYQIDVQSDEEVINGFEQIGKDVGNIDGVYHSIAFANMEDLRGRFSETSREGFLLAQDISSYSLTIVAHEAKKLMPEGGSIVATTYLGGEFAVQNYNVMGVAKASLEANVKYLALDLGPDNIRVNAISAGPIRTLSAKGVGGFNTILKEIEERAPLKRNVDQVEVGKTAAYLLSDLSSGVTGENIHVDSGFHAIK
Description: Y.1 FabI Enzyme Inhibition: Staphylococcus aureus FabI Enzyme Inhibition Assay
FabI enzyme inhibition assays were carried out in half-area, 384-well microtitre plates. Compounds were evaluated in 40-μl assay mixtures containing 100 mM NaADA, pH 6.5 (ADA=N-[2-acetamido]-2iminodiacetic acid), 250 μM crotonoyl-CoA, 625 μM NADH and 50 μg/ml S. aureus ATCC 29213 FabI. Inhibitors were typically varied over the range of 50 to 0.39 μM. The reaction mixtures were incubated for 30 minutes at room temperature and the reaction was stopped by adding 200 mM Tris buffer (pH 9.0) to create a pH-shift. The consumption of NADH was monitored by measuring the change in absorbance at […]. By comparing sample readings to those of negative (absence of compound) and positive (absence of enzyme) controls, the percent inhibition of enzymatic activity of the compounds was determined A best-fit curve is fitted by a minimum of squares method. From this an IC50-value (expressed in μg/ml), resulting in 50% inhibition of enzymatic activity, was obtained.

[2] = test system: Staphylococcus aureus ATCC 29213; assay: Antibacterial susceptibility testing, IC90 determination (STA); format: cell-based; conditions: Staphylococcus aureus, ATCC29213, Staphylococcus aureus ATCC 29213, broth microdilution, resazurin; read-out: STA (361.159) IC90
Description: (§1) The following bacteria were used: Staphylococcus aureus ATCC 29213, methicillin-resistant Staphylococcus aureus (MRSA) ATCC 700788 and Escherichia coli ATCC 35218. The bacteria used in this study were grown overnight in flasks containing 100 ml Mueller-Hinton broth (Difco cat. nr. 0757-17) in sterile de-ionized water, with shaking, at 37° C. Stocks were store at −70° C. until use.
(§2) Bacteria were incubated on a tryptic soy agar plate containing 5% sheep blood (Becton Dickinson cat. nr. 254053) for 18-24 hours at 35° C. in aerobic conditions (first passage). For the second passage, fresh Mueller-Hinton broth is inoculated with 5-10 colonies and grown overnight at 35° C. until turbidity (reaching log-phase) in aerobic conditions is reached. The bacterial suspension is then adjusted to 0.5 McFarland density and further diluted 1:100 in Mueller Hinton broth medium. This is used as inoculum.
The result(s) are depicted the table below (for STA ATCC 29213).
(§3) MIC assays were performed by the broth microdilution method in a 96-well format (flat-bottom microtitre plates) with a final volume of 0.1 ml Mueller Hinton broth containing two-fold serial dilutions of compounds and inoculated with 5×10^5 CFU/ml of bacteria (standard inoculum size according to CLSI guidelines). Inhibitors are typically varied over the range of 63 to 0.49 μM. The final DMSO concentration in the assay was 1.25% (maximum tolerable DMSO concentration=6%). In the assays where the effect of human serum on the activity of the compounds against S. aureus was tested, human serum was added at a final concentration of 10%. The plates were incubated at 35° C. for 16-20 hours. At the end of incubation the bacterial growth was quantified fluorometrically. For this, resazurin was added to all wells and the plates were re-incubated. The incubation time is dependent on the type of bacteria. A change in color from blue to pink indicated the growth of bacteria. The fluorescence was read in computer-controlled fluorometer (Fluoroskan Ascent FL, Labsystems) at an excitation wavelength 540 nm and an emission wavelength of 590 nm. The % growth inhibition achieved by the compounds was calculated according to standard methods. The IC90 (expressed in μg/ml) was defined as the 90% inhibitory concentration for bacterial growth. A panel of reference compounds were simultaneously tested for QC approval.

S. aureus = assay: Antibacterial susceptibility testing, IC90 determination with 10% human serum (STA + 10% HS); format: cell-based, Staphylococcus aureus; conditions: Staphylococcus aureus, human serum at final concentration of 10%, read-out: STA + 10% HS (361.169) IC90
Description: as §1, §2, §3
The results are depicted in the table(s) below (STA+10% HS).

[3] = Cytotoxicity MTT assay (HELAM); format: cell-based, Human; conditions: human, HelaM cells, read-out: HELAM (222.125) CC50
Description: Cytotoxicity of the compounds was evaluated using the MTT assay. Human HelaM cells grown in 96-well plates were exposed to serial dilutions of the tested compounds (final volume of 0.2 ml) and incubated for 72 hours at 37° C. and 5% CO2. Inhibitors are typically varied over the range of 25 to 0.8 μM. The final DMSO concentration in the assay is 0.5%. MTT (3-(4,5-Dimethylthiazol-2-yl)-2,5-diphenyltetrazolium bromide, a tetrazole) was added and reduced to purple formazan only in living cells. Solubilization of the formazan crystals was achieved by adding 100 μl 2-propanol. Cell viability was determined by measuring the absorbance of the reduced formazan, giving a purple color, at 540 nm and 690 nm. The absorbance measured at 690 nm was automatically subtracted from the absorbance at 540 nm, to eliminate the effects of non-specific absorption. The percent cytotoxicity achieved by the compounds was calculated according to standard methods. Cytotoxicity is reported as CC50, the concentration that causes a 50% reduction in cell viability.
The results are depicted in the table(s) below (HELAM).

Row | IC50 [1] | IC90 [2] | IC90 (S. aureus) | melting point | Structure (SMILES) | CC50 at 72 h [3]
1 | 1.18 µM | 0.26 mg/L (≈ 0.55 µM) | 0.59 mg/L | 214 °C | O=C1Nc2ncc(/C=C/C(=O)N3CC4C=C(c5ccccc5)CC4C3)cc2CN2CCSCC12 (centres unmarked) [compound 77] | 1.2 mg/L (≈ 2.54 µM)
2 | 1.7 µM | 3.39 mg/L (≈ 8.12 µM) | 3.13 mg/L | 178.9 to 179.8 °C | CN1CC(=O)Nc2ncc(/C=C/C(=O)N3C[C@@H]4CN(c5ccccc5)C[C@@H]4C3)cc2C1 [compound 58] | > 10.5 mg/L
3 | 2.23 µM | 3.39 mg/L (≈ 7.57 µM) | 3.17 mg/L | 114 °C | COc1ccccc1N1C[C@H]2CN(C(=O)/C=C/c3cnc4c(c3)CN(C)CC(=O)N4)C[C@H]2C1 [compound 59] | > 11.2 mg/L
4 | 1.18 µM | 1.51 mg/L (≈ 3.72 µM) | 1.44 mg/L | 149 °C | Cn1nccc1C1=CC2CN(C(=O)/C=C/c3cnc4c(c3)COCC(=O)N4)CC2C1 (centres unmarked) [compound 56] | > 10.2 mg/L
5 | 0.993 µM | 0.45 mg/L (≈ 0.931 µM) | 0.43 mg/L | > 270 °C | CN1CCN2C(=O)c3cc(/C=C/C(=O)N4CC5C=C(c6ccccc6)CC5C4)cnc3NC(=O)C2C1 (centres unmarked) [compound 82] | > 12.1 mg/L
6 | 0.832 µM | < 0.21 mg/L | < 0.21 mg/L | 214.9 to 232.7 °C | O=C1CC2CCCCN2Cc2cc(/C=C/C(=O)N3C[C@@H]4CC(c5ccccc5)=C[C@@H]4C3)cnc2N1 (some centres unmarked) [compound 90] | 4.4 mg/L (≈ 9.39 µM)
7 | 0.939 µM | 1.54 mg/L (≈ 3.81 µM) | 1.52 mg/L | 228 °C | Cn1nccc1C1=CC2CN(C(=O)/C=C/c3cnc4c(c3)CNCC(=O)N4)CC2C1 (centres unmarked) [compound 57] | > 10.2 mg/L
8 | 0.965 µM | 0.35 mg/L (≈ 0.844 µM) | 0.4 mg/L | 202 °C | CN1CC(=O)Nc2ncc(/C=C/C(=O)N3CC4C=C(c5ccccc5)CC4C3)cc2C1 (centres unmarked) [compound 50] | > 20.8 mg/L
9 | 0.903 µM | 0.35 mg/L (≈ 0.903 µM) | 0.71 mg/L | > 250 °C | O=C1Nc2ncc(/C=C/C(=O)N3CC4C=C(c5ccccc5)CC4C3)cc2CO1 (centres unmarked) [compound 51] | > 9.73 mg/L

Second part, the molecule before the results:

Row | Structure (SMILES) | IC50 [1] | IC90 [2] | IC90 (S. aureus) | melting point | CC50 at 72 h [3]
10 | O=C1Nc2ncc(/C=C/C(=O)N3CC4C=C(c5ccncc5)CC4C3)cc2CN2CCOCC12 (centres unmarked) [compound 80] | 0.743 µM | 0.42 mg/L (≈ 0.918 µM) | 0.38 mg/L | 212 °C | > 11.5 mg/L
11 | CC(C)C1Oc2cc(/C=C/C(=O)N3CC4C=C(c5ccncc5)CC4C3)cnc2NC1=O (centres unmarked) [compound 65] | 0.859 µM | < 0.21 mg/L | < 0.21 mg/L | 113.11 °C | > 10.8 mg/L
12 | CC(=O)N1CCN2Cc3cc(/C=C/C(=O)N4CC5C=C(c6cccs6)CC5C4)cnc3NC(=O)C2C1 (centres unmarked) [compound 75] | 1.29 µM | < 0.25 mg/L | < 0.25 mg/L | 215 to 230 °C | > 12.7 mg/L
13 | O=C1CNC(=O)c2cc(/C=C/C(=O)N3CC4C=C(c5ccccc5)CC4C3)cnc2N1 (centres unmarked) [compound 66] | 0.651 µM | 0.76 mg/L (≈ 1.83 µM) | 0.79 mg/L | 226 °C | > 10.4 mg/L
14 | O=C(Cc1ccncc1)Nc1ccc(/C=C/C(=O)N2CC3C=C(c4ccncc4)CC3C2)cn1 (centres unmarked) [compound 17] | 1.44 µM | 1.33 mg/L (≈ 2.95 µM) | 1.4 mg/L | > 250 °C | > 4.51 mg/L
15 | O=C1Nc2ncc(/C=C/C(=O)N3CC4C=C(c5ccccc5)CC4C3)cc2C(=O)N2CCOCC12 (centres unmarked) [compound 76] | 1.23 µM | 0.25 mg/L (≈ 0.531 µM) | 0.41 mg/L | 278.12 °C | > 11.8 mg/L
16 | Nc1ccc(/C=C/C(=O)N2CC3C=C(c4ccccc4)CC3C2)cn1 (centres unmarked) [compound 15] | 2.35 µM | 1.23 mg/L (≈ 3.71 µM) | 2.43 mg/L | 236 °C | > 8.32 mg/L
17 | COc1cncc(C(=O)Nc2ccc(/C=C/C(=O)N3CC4C=C(c5nccs5)CC4C3)cn2)c1 (centres unmarked) [compound 32] | 0.718 µM | < 0.23 mg/L | < 0.23 mg/L | 207 °C | > 11.9 mg/L
18 | O=C1Nc2ncc(/C=C/C(=O)N3CC4C=C(c5ccsc5)CC4C3)cc2CN2CCOCC12 (centres unmarked) [compound 70] | 1.45 µM | 0.17 mg/L (≈ 0.368 µM) | 0.2 mg/L | > 250 °C | > 11.6 mg/L
19 | O=C1COCc2cc(/C=C/C(=O)N3CC4C=C(c5ccncc5)CC4C3)cnc2N1 (centres unmarked) [compound 54] | 1.02 µM | 0.38 mg/L (≈ 0.944 µM) | 0.35 mg/L | 154 °C | > 10.1 mg/L
20 | Cc1cncc(C(=O)Nc2ccc(/C=C/C(=O)N3CC4C=C(c5ccnn5C)CC4C3)cn2)c1 (centres unmarked) [compound 16] | 1.32 µM | 1.25 mg/L (≈ 2.75 µM) | 1.63 mg/L | 173.34 °C | > 11.4 mg/L
21 | COc1cncc(C(=O)Nc2ccc(/C=C/C(=O)N3CC4C=C(c5ccsc5)CC4C3)cn2)c1 (centres unmarked) [compound 33] | 1.29 µM | < 0.23 mg/L | < 0.23 mg/L | 205 °C | > 11.9 mg/L
22 | O=C1COc2cc(/C=C/C(=O)N3CC4C=C(c5ccncc5)CC4C3)cnc2N1 (centres unmarked) [compound 36] | 1.13 µM | 0.16 mg/L (≈ 0.412 µM) | < 0.08 mg/L | > 260 °C | > 3.88 mg/L
23 | COc1cncc(C(=O)Nc2ccc(/C=C/C(=O)N3CC4C=C(c5ccnn5C)CC4C3)cn2)c1 (centres unmarked) [compound 31] | 0.659 µM | 0.72 mg/L (≈ 1.53 µM) | 0.86 mg/L | 89.36 °C | > 11.8 mg/L
24 | O=C(Nc1ccc(/C=C/C(=O)N2CC3C=C(c4ccccc4)CC3C2)cn1)c1ccoc1 (centres unmarked) [compound 2] | 7.59 µM | 0.21 mg/L (≈ 0.494 µM) | 1.66 mg/L | 202 °C | 7.57 mg/L (≈ 17.8 µM)
25 | O=C1Nc2ncc(/C=C/C(=O)N3CC4C=C(c5ccncc5)CC4C3)cc2CO1 (centres unmarked) [compound 55] | 0.927 µM | 0.76 mg/L (≈ 1.96 µM) | 0.71 mg/L | 156 °C | > 9.76 mg/L
